pKi: −log10 of the molar value.
molecular target: human capsaicin receptor (VR1) (Homo sapiens, UniProt Q8NER1); assay: Capsaicin receptor binding assay ([3H]RTX competition, VR1-transfected HEK293 membranes)
Sequence (Q8NER1 whole entry): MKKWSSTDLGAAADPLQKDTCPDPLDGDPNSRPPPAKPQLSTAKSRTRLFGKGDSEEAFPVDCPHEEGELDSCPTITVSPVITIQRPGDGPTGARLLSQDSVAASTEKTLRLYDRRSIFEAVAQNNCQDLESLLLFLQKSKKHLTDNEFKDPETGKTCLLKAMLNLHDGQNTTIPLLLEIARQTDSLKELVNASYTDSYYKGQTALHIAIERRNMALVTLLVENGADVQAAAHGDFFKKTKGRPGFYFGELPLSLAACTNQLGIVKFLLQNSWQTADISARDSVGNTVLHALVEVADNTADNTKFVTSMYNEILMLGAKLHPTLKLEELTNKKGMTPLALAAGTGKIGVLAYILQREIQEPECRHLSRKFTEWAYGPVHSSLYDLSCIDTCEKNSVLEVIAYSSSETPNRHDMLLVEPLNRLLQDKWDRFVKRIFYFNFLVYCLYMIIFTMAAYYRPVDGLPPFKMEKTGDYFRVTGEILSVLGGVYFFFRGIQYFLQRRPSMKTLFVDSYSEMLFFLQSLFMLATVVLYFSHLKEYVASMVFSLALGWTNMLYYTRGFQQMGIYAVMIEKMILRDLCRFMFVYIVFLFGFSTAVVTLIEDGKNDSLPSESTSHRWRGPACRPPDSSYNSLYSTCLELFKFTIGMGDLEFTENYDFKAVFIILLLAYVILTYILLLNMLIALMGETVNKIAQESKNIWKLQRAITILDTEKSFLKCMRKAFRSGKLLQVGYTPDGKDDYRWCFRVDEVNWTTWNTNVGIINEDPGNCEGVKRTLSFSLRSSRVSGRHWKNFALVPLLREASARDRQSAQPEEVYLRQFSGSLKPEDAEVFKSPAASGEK

pKi, > 6.00:
CCOCc1nc(Nc2ccc(C(F)(F)F)cc2)c2ccc(-c3ncccc3Cl)cc2n1 [Compound 81, [7-(3-Chloro-pyridin-2-yl)-2-ethoxymethyl-quinazolin-4-yl]-(4-trifluoromethyl-phenyl)-amine]
CCOCc1nc(Nc2ccc(C(C)(C)C)nc2)c2ccc(-c3ncccc3Cl)cc2n1 [Compound 82, (6-tert-Butyl-pyridin-3-yl)-[7-(3-chloro-pyridin-2-yl)-2-ethoxymethyl-quinazolin-4-yl]-amine]
COCCOCc1nc(Nc2ccc(C(C)(C)C#N)cc2)c2ccc(-c3ncccc3Cl)nc2n1 [Compound 83, 2-{4-[7-(3-Chloro-pyridin-2-yl)-2-(2-methoxy-ethoxymethyl)-pyrido[2,3-d]pyrimidin-4-ylamino]-phenyl}-2-methyl-propionitrile]
CCC(C)c1ccc(Nc2nc(COCCOC)nc3nc(-c4ncccc4Cl)ccc23)cc1 (stereo not drawn) [Compound 84, (4-sec-Butyl-phenyl)-[7-(3-chloro-pyridin-2-yl)-2-(2-methoxy-ethoxymethyl)-pyrido[2,3-d]pyrimidin-4-yl]-amine]
COCCc1nc(Nc2ccc(C(F)(F)F)cc2)c2ccc(-c3ncccc3Cl)nc2n1 [Compound 85, [7-(3-Chloro-pyridin-2-yl)-2-(2-methoxy-ethyl)-pyrido[2,3-d]pyrimidin-4-yl]-(4-trifluoromethyl-phenyl)-amine]
FC(F)(F)c1ccc(Nc2nc(COC3CCOCC3)nc3cc(-c4ncccc4C(F)(F)F)ccc23)cc1 [Compound 86, [2-(Tetrahydro-pyran-4-yloxymethyl)-7-(3-trifluoromethyl-pyridin-2-yl)-quinazolin-4-yl]-(4-trifluoromethyl-phenyl)-amine]
CN(C)CCOCc1nc(Nc2ccc(C(F)(F)F)cc2)c2ccc(-c3ncccc3C(F)(F)F)cc2n1 [Compound 87, [2-(2-Dimethylamino-ethoxymethyl)-7-(3-trifluoromethyl-pyridin-2-yl)-quinazolin-4-yl]-(4-trifluoromethyl-phenyl)-amine]
COCc1nc(Nc2ccc(C(F)(F)F)cc2)c2ccc(-c3ncccc3C)nc2n1 [Compound 88, [2-Methoxymethyl-7-(3-methyl-pyridin-2-yl)-pyrido[2,3-d]pyrimidin-4-yl]-(4-trifluoromethyl-phenyl)-amine]
CN(C)CCCOCc1nc(Nc2ccc(C(F)(F)F)cc2)c2ccc(-c3ncccc3C(F)(F)F)cc2n1 [Compound 89, [2-(3-Dimethylamino-propoxymethyl)-7-(3-trifluoromethyl-pyridin-2-yl)-quinazolin-4-yl]-(4-trifluoromethyl-phenyl)-amine]
CCOCc1nc(Nc2ccc(C(F)(F)F)cc2)c2ccc(-c3ncccc3C)cc2n1 [Compound 90, [2-Ethoxymethyl-7-(3-methyl-pyridin-2-yl)-quinazolin-4-yl]-(4-trifluoromethyl-phenyl)-amine]
Cc1cccnc1-c1ccc2c(Nc3ccc(C(F)(F)F)cc3)nc(COC(C)C)nc2c1 [Compound 91, [2-Isopropoxymethyl-7-(3-methyl-pyridin-2-yl)-quinazolin-4-yl]-(4-trifluoromethyl-phenyl)-amine]
Cc1cccnc1-c1ccc2c(Nc3ccc(C(F)(F)F)cc3)nc(COC3CCOCC3)nc2c1 [Compound 92, [7-(3-Methyl-pyridin-2-yl)-2-(tetrahydro-pyran-4-yloxymethyl)-quinazolin-4-yl]-(4-trifluoromethyl-phenyl)-amine]
CCC(C)c1ccc(Nc2nc(COC)nc3nc(-c4ncccc4C(F)(F)F)ccc23)cc1 (stereo not drawn) [Compound 93, (4-sec-Butyl-phenyl)-[2-methoxymethyl-7-(3-trifluoromethyl-pyridin-2-yl)-pyrido[2,3-d]pyrimidin-4-yl]-amine]
COCc1nc(Nc2ccc(C(C)C(F)(F)F)cc2)c2ccc(-c3ncccc3C(F)(F)F)nc2n1 (stereo not drawn) [Compound 94, [2-Methoxymethyl-7-(3-trifluoromethyl-pyridin-2-yl)-pyrido[2,3-d]pyrimidin-4-yl]-[4-(2,2,2-trifluoro-1-methyl-ethyl)-phenyl]-amine]
COCc1nc(Nc2ccc(C(C)(C)C)cc2)c2ccc(-c3ncccc3C)nc2n1 [Compound 95, (4-tert-Butyl-phenyl)-[2-methoxymethyl-7-(3-methyl-pyridin-2-yl)-pyrido[2,3-d]pyrimidin-4-yl]-amine]
COCc1nc(Nc2ccc(C(C)C)cc2)c2ccc(-c3ncccc3C)nc2n1 [Compound 96, (4-Isopropyl-phenyl)-[2-methoxymethyl-7-(3-methyl-pyridin-2-yl)-pyrido[2,3-d]pyrimidin-4-yl]-amine]
CCC(C)c1ccc(Nc2nc(COC)nc3nc(-c4ncccc4C)ccc23)cc1 (stereo not drawn) [Compound 97, (4-sec-Butyl-phenyl)-[2-methoxymethyl-7-(3-methyl-pyridin-2-yl)-pyrido[2,3-d]pyrimidin-4-yl]-amine]
COCc1nc(Nc2ccc(C(C)(C)C#N)cc2)c2ccc(-c3ncccc3C)nc2n1 [Compound 98, 2-{4-[2-Methoxymethyl-7-(3-methyl-pyridin-2-yl)-pyrido[2,3-d]pyrimidin-4-ylamino]-phenyl}-2-methyl-propionitrile]
CCOC(=O)c1nc(Nc2ccc(C(F)(F)F)cc2)c2ccc(-c3ncccc3C(F)(F)F)cc2n1 [Compound 99, 4-(4-Trifluoromethyl-phenylamino)-7-(3-trifluoromethyl-pyridin-2-yl)-quinazoline-2-carboxylic acid ethyl ester]
O=C(O)c1nc(Nc2ccc(C(F)(F)F)cc2)c2ccc(-c3ncccc3C(F)(F)F)cc2n1 [Compound 100, 4-(4-Trifluoromethyl-phenylamino)-7-(3-trifluoromethyl-pyridin-2-yl)-quinazoline-2-carboxylic acid]
CC(C)c1ccc(Nc2nc(COC3CCOCC3)nc3cc(-c4ncccc4C(F)(F)F)ccc23)cc1 [Compound 101, (4-Isopropyl-phenyl)-[2-(tetrahydro-pyran-4-yloxymethyl)-7-(3-trifluoromethyl-pyridin-2-yl)-quinazolin-4-yl]-amine]
FC(F)(F)c1ccc(Nc2nc(COC3CCOCC3)nc3cc(-c4ncccc4Cl)ccc23)cc1 [Compound 102, [7-(3-Chloro-pyridin-2-yl)-2-(tetrahydro-pyran-4-yloxymethyl)-quinazolin-4-yl]-(4-trifluoromethyl-phenyl)-amine]
CC(C)c1ccc(Nc2nc(COC3CCOCC3)nc3cc(-c4ncccc4Cl)ccc23)cc1 [Compound 103, [7-(3-Chloro-pyridin-2-yl)-2-(tetrahydro-pyran-4-yloxymethyl)-quinazolin-4-yl]-(4-isopropyl-phenyl)-amine]
CCOCc1nc(Nc2ccc(C(C)C)cc2)c2ccc(-c3ncccc3C)cc2n1 [Compound 104, [2-Ethoxymethyl-7-(3-methyl-pyridin-2-yl)-quinazolin-4-yl]-(4-isopropyl-phenyl)-amine]
Cc1cccnc1-c1ccc2c(Nc3ccc(C(C)C)cc3)nc(COC(C)C)nc2c1 [Compound 105, [2-Isopropoxymethyl-7-(3-methyl-pyridin-2-yl)-quinazolin-4-yl]-(4-isopropyl-phenyl)-amine]
Cc1cccnc1-c1ccc2c(Nc3ccc(C(C)C)cc3)nc(COC3CCOCC3)nc2c1 [Compound 106, (4-Isopropyl-phenyl)-[7-(3-methyl-pyridin-2-yl)-2-(tetrahydro-pyran-4-yloxymethyl)-quinazolin-4-yl]-amine]
COCc1nc(Nc2ccc(C(C)(C)C)cc2)c2ccc(-c3ncccc3C(F)(F)F)nc2n1 [Compound 107, (4-tert-Butyl-phenyl)-[2-methoxymethyl-7-(3-trifluoromethyl-pyridin-2-yl)-pyrido[2,3-d]pyrimidin-4-yl]-amine]
COCc1nc(Nc2ccc(C(C)C)cc2)c2ccc(-c3ncccc3C(F)(F)F)nc2n1 [Compound 108, (4-Isopropyl-phenyl)-[2-methoxymethyl-7-(3-trifluoromethyl-pyridin-2-yl)-pyrido[2,3-d]pyrimidin-4-yl]-amine]
COCc1nc(Nc2ccc(C(F)(F)F)cc2)c2ccc(-c3ncccc3C(F)(F)F)nc2n1 [Compound 109, [2-Methoxymethyl-7-(3-trifluoromethyl-pyridin-2-yl)-pyrido[2,3-d]pyrimidin-4-yl]-(4-trifluoromethyl-phenyl)-amine]
COCc1nc(Nc2ccc(C3CCCC3)cc2)c2ccc(-c3ncccc3C(F)(F)F)nc2n1 [Compound 110, (4-Cyclopentyl-phenyl)-[2-methoxymethyl-7-(3-trifluoromethyl-pyridin-2-yl)-pyrido[2,3-d]pyrimidin-4-yl]-amine]
CN(C)CCCCOCc1nc(Nc2ccc(C(C)(C)C)cc2)c2ccc(-c3ncccc3C(F)(F)F)cc2n1 [Compound 111, (4-tert-Butyl-phenyl)-[2-(4-dimethylamino-butoxymethyl)-7-(3-trifluoromethyl-pyridin-2-yl)-quinazolin-4-yl]-amine]
COCc1nc(Nc2ccc(S(C)(=O)=O)cc2)c2ccc(-c3ncccc3C(F)(F)F)nc2n1 [Compound 112, (4-Methanesulfonyl-phenyl)-[2-methoxymethyl-7-(3-trifluoromethyl-pyridin-2-yl)-pyrido[2,3-d]pyrimidin-4-yl]-amine]
COCc1nc(Nc2ccc(S(=O)(=O)C(F)(F)F)cc2)c2ccc(-c3ncccc3C(F)(F)F)nc2n1 [Compound 113, [2-Methoxymethyl-7-(3-trifluoromethyl-pyridin-2-yl)-pyrido[2,3-d]pyrimidin-4-yl]-(4-trifluoromethanesulfonyl-phenyl)-amine]

Source: patent US20040156869A1, “2-substituted quinazolin-4-ylamine analogues” (Neurogen Corporation, priority 2002, published 2004)
